One substance from US20220025061A1, “COMBINATION THERAPIES FOR TREATING DISEASE USING AN INNATE IMMUNITY MODIFIER AND AN OX40 AGONIST” (BioXcel Therapeutics, Inc., priority 2018, published 2022) can be followed below.

One test has as its system MC38 cells. Nature of the test: MC38 mouse model of colon adenocarcinoma: tumor volume and survival. The format is in vivo. The following applies: MC38 tumor-bearing C57BL/6 mice. The protocol: Animals: Six to ten week-old female C57BL/6 mice were used in the studies as supplied by Beijing Vital River Laboratory Animal Technology Co., Ltd. Mice received food and water ad libitum. All animals were maintained in a controlled environment with 20-26° C. temperature, 40-70% humidity, and a light/dark cycle of 12 hours each. Up to 5 mice were kept in each cage. The study protocol and procedures involving the care and use of animals were reviewed and approved by the Institutional Animal Care and Use Committee (IACUC) to ensure compliance with the regulations of the Association for Assessment and Accreditation of Laboratory Animal Care (AAALAC).
Reagents and Antibodies: Anti-mouse PD-1 antibody (BioXcell; Lot No./Cat. No./clone: 665418F1/BP0146/RMP1-14) was supplied at a concentration of 7.83 mg/mL and maintained at 4° C. […]
Tumor volumes were measured on Day 10, Day 14, Day 17, Day 21, Day 23, Day 25, Day 28, Day 30, Day 32, Day 35, Day 37, Day 39, Day 42, Day 44, Day 46, Day 49 and Day 51 in two dimensions using a caliper, and the volume was expressed in mm^3 using the formula: V=0.5 a×b^2 where a and b are the length and width of the tumor, respectively.
Statistical Analysis: Data related to tumor volume are presented as mean and the standard error of the mean (SEM). […] Percentage tumor reduction was assessed on Day 23 by using the below formula: […]

In test [1] the test system is pro-inflammatory cytokines and chemokines, including IL-18. Nature of the test: Cytokines and chemokines in the serum of treated animals. The format is in vivo, mice. The following applies: serum of animals treated with talabostat mesylate alone; data not shown. How it is done: Various cytokines and chemokines in the serum of animals treated with talabostat mesylate alone was also evaluated. […] IL-18 bridges the innate and adaptive immune systems through induction of IFNγ and OX40 (CD134) signaling pathway (Maxwell et al., Journal of Immunology, 2006, 177:234).

In the test on MC38 cells (same dosing as Table 4, vehicle control median survival 30 days), talabostat mesylate had a median survival of 35 days. For the same substance, in the test with MC38 cells (talabostat mesylate 20 μg/mouse p.o. QD, anti-OX40 Ab 10 mg/kg i.p. twice weekly, anti-PD-1 Ab 5 mg/kg i.p. twice weekly, treatment from Day 11, Day 23), the “% Tumor Reduction compared to vehicle control on Day 23” value came to 8.16%. Besides, the “pro-inflammatory cytokines and chemokines in serum, including IL-18” value in test [1] is given as “stimulated”.
